Results taken from ChEMBL document CHEMBL1201862, “PubChem BioAssay data set” (2004).
Active and inactive are the calls of the source.

Assays:
[1] = biological target: Vascular endothelial growth factor receptor 1 (Homo sapiens, UniProt P17948); assay type: functional;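 also: measured within a kinome-wide profiling panel, FLT1 as the panel member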
[2] = biological target: Tyrosine-protein kinase Blk (Homo sapiens, UniProt P51451); assay type: functional;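 also: obtained as one member of a kinome-wide kinase assay panel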
[3] = biological target: Tyrosine-protein kinase ABL1 (Homo sapiens, UniProt P00519); assay type: functional
[4] = biological target: Tyrosine-protein kinase Lyn (Homo sapiens, UniProt P07948); assay type: functional;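 also: lyn as one member of a kinase panel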
[5] = biological target: Receptor-type tyrosine-protein kinase FLT3 (Homo sapiens, UniProt P36888); assay type: functional;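 also: FLT3 was tested as one member of a kinome-wide kinase panel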
[6] = biological target: Tyrosine-protein kinase Fyn (Homo sapiens, UniProt P06241); assay type: functional
[7] = biological target: Proto-oncogene tyrosine-protein kinase Src (Homo sapiens, UniProt P12931); assay type: functional;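 also: SRC entry within a kinome-wide kinase profiling panel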
[8] = biological target: Macrophage colony-stimulating factor 1 receptor (Homo sapiens, UniProt P07333); assay type: functional;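 also: value comes from the Navigating the Kinome screening panel, CSF1R member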
[9] = biological target: Vascular endothelial growth factor receptor 2 (Homo sapiens, UniProt P35968); assay type: functional
[10] = biological target: Vascular endothelial growth factor receptor 3 (Homo sapiens, UniProt P35916); assay type: functional;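 also: value from a kinome-wide profiling panel, with FLT4 as the panel member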
[11] = biological target: Mast/stem cell growth factor receptor Kit (Homo sapiens, UniProt P10721); assay type: functional;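 also: KIT entry within a kinase panel assay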
[12] = biological target: Tyrosine-protein kinase Lck (Homo sapiens, UniProt P06239); assay type: functional;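 also: lck was assayed as one member of a kinase panel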
[13] = microbe, parasite or virus in culture; assay type: functional; details: Mycobacterium tuberculosis
[14] = THP-1 cell cytotoxicity, cytotoxicity control, set 4 (AID 504911); assay type: functional; details: Mycobacterium tuberculosis
[15] = Vero cell cytotoxicity, dose response, cytotoxicity control for M. tuberculosis growth inhibitor project, Vero cells, purified and synthesized compounds, set 5 (AID 504909); assay type: functional; details: Mycobacterium tuberculosis
[16] = HepG2 cell cytotoxicity, cytotoxicity control, set 4 (AID 504910); assay type: functional; details: Mycobacterium tuberculosis
[17] = Vero cell cytotoxicity, cytotoxicity control for M. tuberculosis inhibitor project, purified and synthesized samples, set 3 (AID 504684); assay type: functional
[18] = THP-1 cell cytotoxicity, dose response, cytotoxicity control, set 3 (AID 504852); assay type: functional; details: Mycobacterium tuberculosis
[19] = HepG2 cell cytotoxicity, dose response, cytotoxicity control, set 3 (AID 504853); assay type: functional; details: Mycobacterium tuberculosis
[20] = Vero cell cytotoxicity, dose response, cytotoxicity control for M. tuberculosis growth inhibitor project, Vero cells, purified and synthesized compounds, set 4 (AID 504854); assay type: functional; details: Mycobacterium tuberculosis
[21] = A Cell Based Secondary Assay to Explore Cytotoxicity in HepG2 Cells of Compounds that Modulate Mycobacterium tuberculosis in Media Containing Glycerol versus Media without Glycerol (2).; assay type: functional
[22] = A Cell Based Secondary Assay to Explore Cytotoxicity in THP-1 Cells of Compounds that Modulate Mycobacterium tuberculosis in Media Containing Glycerol versus Media without Glycerol (2).; assay type: functional
[23] = biological target: Dual specificity tyrosine-phosphorylation-regulated kinase 1B (Homo sapiens, UniProt Q9Y463); assay: Navigating the Kinome. Panel member name: DYRK1B; assay type: functional
[24] = biological target: Activated CDC42 kinase 1 (Homo sapiens, UniProt Q07912); assay: Navigating the Kinome. Panel member name: ACK1; assay type: functional
[25] = biological target: Casein kinase I isoform alpha (Homo sapiens, UniProt P48729); assay type: functional
[26] = biological target: Death-associated protein kinase 3 (Homo sapiens, UniProt O43293); assay type: functional;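 also: measured as one member of a kinome-wide profiling panel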
[27] = biological target: Dual specificity protein kinase CLK4 (Homo sapiens, UniProt Q9HAZ1); assay type: functional
[28] = biological target: Rho-associated protein kinase 1 (Homo sapiens, UniProt Q13464); assay type: functional;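 also: measured within a broad kinome-wide panel profiling many kinases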
[29] = biological target: LIM domain kinase 1 (Homo sapiens, UniProt P53667); assay: Navigating the Kinome. Panel member name: LIMK1; assay type: functional
[30] = biological target: Protein kinase C zeta type (Homo sapiens, UniProt Q05513); assay type: functional;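 also: measured as one member of a broad kinase profiling panel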
[31] = biological target: Serine/threonine-protein kinase pim-1 (Homo sapiens, UniProt P11309); assay type: functional
[32] = biological target: Protein kinase C gamma type (Homo sapiens, UniProt P05129); assay type: functional
[33] = biological target: Calcium/calmodulin-dependent protein kinase type 1 (Homo sapiens, UniProt Q14012); assay type: functional
[34] = biological target: Serine/threonine-protein kinase PAK 1 (Homo sapiens, UniProt Q13153); assay type: functional
[35] = biological target: Protein kinase C delta type (Homo sapiens, UniProt Q05655); assay type: functional
[36] = biological target: Serine/threonine-protein kinase MRCK alpha (Homo sapiens, UniProt Q5VT25); assay type: functional
[37] = biological target: Melanin-concentrating hormone receptor 1 (Homo sapiens, UniProt Q99705); assay: Late-stage fluorescence-based counterscreen for antagonists of the G-protein coupled receptor 7 (GPR7): cell-based dose response assay to identify antagonists of the melanin-concentrating hormone receptor 1 (MCHR1) Set 5.; assay type: functional
[38] = biological target: T1, Neuropeptides B/W receptor type 1 (Homo sapiens, UniProt P48145); assay: human NPBW1 receptor blockade, IC50 – cell-based, fluorescence, dose response, set 5, late-stage follow-up (AID 588566); assay type: functional
T1 sequence (P48145 whole entry): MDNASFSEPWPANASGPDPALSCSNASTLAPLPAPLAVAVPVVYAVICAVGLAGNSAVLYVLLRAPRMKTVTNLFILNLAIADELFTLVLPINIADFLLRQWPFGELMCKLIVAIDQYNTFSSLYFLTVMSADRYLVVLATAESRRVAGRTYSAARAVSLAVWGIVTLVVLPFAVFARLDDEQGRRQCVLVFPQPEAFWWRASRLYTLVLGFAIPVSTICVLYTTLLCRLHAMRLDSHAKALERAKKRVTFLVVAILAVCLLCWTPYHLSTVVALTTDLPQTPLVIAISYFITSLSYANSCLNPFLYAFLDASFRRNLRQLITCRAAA

[39] = biological target: T2, Orexin receptor type 2 (Homo sapiens, UniProt O43614); assay: Counterscreen assay for antagonists of the orexin 1 receptor (OX1R; HCRTR1): Homogeneous Time Resolved Fluorescence (HTRF)-based cell-based dose response assay for antagonists of the orexin 2 receptor (OX2R; HCRTR2), run by assay provider.; assay type: functional
[40] = biological target: T3, Orexin/Hypocretin receptor type 1 (Homo sapiens, UniProt O43613); assay: Homogeneous Time Resolved Fluorescence (HTRF)-based cell-based high throughput dose response assay for antagonists of the orexin 1 receptor (OX1R; HCRTR1). [Related pubchem assays (depositor defined):AID434989, AID435008, AID463079, AID485270, AID492963, AID492964, AID492965, AID493232, AID504717, AID504718]; assay type: functional
[41] = system: CHO-K1; assay: Counterscreen for antagonists of the orexin 1 receptor (OX1R; HCRTR1): Homogeneous time resolved fluorescence (HTRF)-based cell-based dose response assay to identify antagonists of the parental CHO-K1 cell line. [Related pubchem assays (depositor defined):AID434989, AID435008, AID463079, AID485270, AID492963, AID492964, AID492965, AID493232, AID504699, AID504701]; assay type: functional; details: Cricetulus griseus;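 also: potency for inhibition of ATP-stimulated IP1 production as antagonists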
[42] = biological target: T2, Orexin receptor type 2; assay: Counterscreen assay for antagonists of the orexin 1 receptor (OX1R; HCRTR1): Fluorescence-based cell-based dose response assay for antagonists of the orexin 2 receptor (OX2R; HCRTR2), run by assay provider.; assay type: functional
[43] = Counterscreen for antagonists of the orexin 1 receptor (OX1R; HCRTR1): Fluorescence-based cell-based high throughput dose response assay to identify antagonists of the parental CHO cell line. [Related pubchem assays (depositor defined):AID434989, AID435008, AID463079, AID485270, AID492963, AID492964, AID492965, AID493232, AID504699, AID504701]; assay type: functional
[44] = biological target: T3, Orexin/Hypocretin receptor type 1; assay: Fluorescence-based cell-based high throughput dose response assay for antagonists of the orexin 1 receptor (OX1R; HCRTR1). [Related pubchem assays (depositor defined):AID434989, AID435008, AID463079, AID485270, AID492963, AID492964, AID492965, AID493232, AID504717, AID504718]; assay type: functional
[45] = biological target: Luciferin 4-monooxygenase (Photuris pensylvanica, UniProt Q27757); assay: inhibition of Cell Titer Glo luciferase signal – biochemical, luminescence, cherry-picks, counter-screen for HSF-1 reporter inhibitor project, dose response (AID 588847)
[46] = HIV-1 AD8 envelope cell-cell fusion blockers – cherry-pick, dose response (AID 652062); assay type: functional, cell-based;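 also: luciferase signal from cell-cell fusion driven by HIV-1 clade B AD8 Env; potency is for inhibitors of fusion seen as a drop in luminescence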
[47] = blockers of HIV-1 envelope-mediated cell-cell fusion – cherry-pick, dose response (AID 652057); assay type: functional, cell-based
[48] = system: HEK293; assay: EBV LMP1 TES2 canonical NF-kB signalling blockers – cell-based, HEK293, luciferase, cherry-pick, dose response (AID 588343); assay type: functional; details: Homo sapiens
[49] = biological target: Latent membrane protein 1 (Human herpesvirus 4 (strain B95-8), UniProt P03230); assay: LMP1 TES1 pathway selectivity over dsRED control – imaging, HEK293T, dual-color eGFP/dsRED, cherry-picks, selectivity assay for LMP1 NF-kB inhibitor project, dose response (AID 588398); assay type: functional, cell-based
[50] = off-target signal loss in HeLa-CEM21 co-culture – HeLa F-luc CTL cells, cherry-picked, counter-screen for HIV-1 Env fusion inhibitor project, dose response (AID 652040); assay type: functional, cell-based;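 also: potency for signal decrease marking cytotoxic or nonspecific inhibition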
[51] = biological target: Dual specificity tyrosine-phosphorylation-regulated kinase 1A (Rattus norvegicus, UniProt Q63470); assay type: biochemical, Homo sapiens
[52] = biological target: T4, Heat shock factor protein 1 (Mus musculus, UniProt P38532); assay: decrease of HSF1-responsive luciferase luminescence – cell-based, NIH3T3, dose retest, confirmation (AID 2382); assay type: functional;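 also: NIH3T3 fibroblasts with HSF1-driven luciferase reporter stressed by proteasome inhibitor MG132; luminescence from HSF1-driven luciferase expression after 8 hours of MG132 stress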
T4 sequence (P38532 whole entry): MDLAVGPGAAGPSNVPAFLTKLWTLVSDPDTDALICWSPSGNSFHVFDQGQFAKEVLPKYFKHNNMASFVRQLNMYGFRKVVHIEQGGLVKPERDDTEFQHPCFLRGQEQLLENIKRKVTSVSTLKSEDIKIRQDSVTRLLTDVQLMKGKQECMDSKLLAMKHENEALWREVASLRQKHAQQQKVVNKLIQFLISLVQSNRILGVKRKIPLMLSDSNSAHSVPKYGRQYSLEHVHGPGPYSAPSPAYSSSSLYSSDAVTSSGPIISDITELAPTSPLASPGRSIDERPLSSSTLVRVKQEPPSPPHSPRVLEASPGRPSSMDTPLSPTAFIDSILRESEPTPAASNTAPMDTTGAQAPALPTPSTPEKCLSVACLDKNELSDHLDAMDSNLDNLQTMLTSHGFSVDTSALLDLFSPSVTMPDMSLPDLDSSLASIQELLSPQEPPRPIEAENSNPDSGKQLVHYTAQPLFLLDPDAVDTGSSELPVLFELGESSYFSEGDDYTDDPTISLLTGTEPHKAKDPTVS

T3 sequence (O43613 whole entry): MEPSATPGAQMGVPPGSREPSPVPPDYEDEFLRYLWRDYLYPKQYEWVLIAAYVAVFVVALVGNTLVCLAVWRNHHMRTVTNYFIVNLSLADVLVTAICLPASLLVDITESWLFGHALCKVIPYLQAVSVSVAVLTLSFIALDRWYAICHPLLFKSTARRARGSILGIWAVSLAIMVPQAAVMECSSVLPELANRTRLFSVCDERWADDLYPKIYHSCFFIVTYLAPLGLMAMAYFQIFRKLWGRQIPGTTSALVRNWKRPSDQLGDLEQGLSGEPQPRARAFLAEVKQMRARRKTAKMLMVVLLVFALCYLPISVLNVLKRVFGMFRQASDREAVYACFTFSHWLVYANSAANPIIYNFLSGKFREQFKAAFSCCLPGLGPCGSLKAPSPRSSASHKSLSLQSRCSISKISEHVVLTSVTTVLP
T2 sequence (O43614 whole entry): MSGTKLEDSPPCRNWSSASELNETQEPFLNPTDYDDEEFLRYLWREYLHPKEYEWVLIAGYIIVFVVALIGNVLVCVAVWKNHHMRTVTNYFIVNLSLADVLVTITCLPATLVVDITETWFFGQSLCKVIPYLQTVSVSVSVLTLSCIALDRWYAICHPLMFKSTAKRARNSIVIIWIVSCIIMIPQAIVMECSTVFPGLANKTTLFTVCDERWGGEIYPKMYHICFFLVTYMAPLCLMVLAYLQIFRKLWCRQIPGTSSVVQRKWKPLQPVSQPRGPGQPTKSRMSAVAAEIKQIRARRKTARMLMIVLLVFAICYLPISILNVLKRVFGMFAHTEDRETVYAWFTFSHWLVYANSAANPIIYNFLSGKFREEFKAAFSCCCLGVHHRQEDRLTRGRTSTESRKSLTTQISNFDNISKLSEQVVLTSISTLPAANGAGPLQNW
Chain of Proto-oncogene tyrosine-protein kinase Src (P12931 2-536 limits assumed): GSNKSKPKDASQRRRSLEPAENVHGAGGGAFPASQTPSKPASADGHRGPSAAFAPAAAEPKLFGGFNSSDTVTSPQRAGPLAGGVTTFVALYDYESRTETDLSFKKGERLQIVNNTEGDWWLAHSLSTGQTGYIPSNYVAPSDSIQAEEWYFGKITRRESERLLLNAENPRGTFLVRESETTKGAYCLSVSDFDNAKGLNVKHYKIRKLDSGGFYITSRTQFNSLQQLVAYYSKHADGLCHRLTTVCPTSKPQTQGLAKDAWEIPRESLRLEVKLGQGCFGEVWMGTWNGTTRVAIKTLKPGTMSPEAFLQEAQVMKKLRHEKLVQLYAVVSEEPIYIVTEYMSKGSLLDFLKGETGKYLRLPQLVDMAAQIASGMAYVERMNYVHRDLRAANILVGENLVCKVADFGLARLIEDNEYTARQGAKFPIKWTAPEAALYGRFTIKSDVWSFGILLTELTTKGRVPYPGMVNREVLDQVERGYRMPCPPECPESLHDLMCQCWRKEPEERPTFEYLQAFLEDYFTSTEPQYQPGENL
Chain of Calcium/calmodulin-dependent protein kinase type 1 (Q14012 whole entry): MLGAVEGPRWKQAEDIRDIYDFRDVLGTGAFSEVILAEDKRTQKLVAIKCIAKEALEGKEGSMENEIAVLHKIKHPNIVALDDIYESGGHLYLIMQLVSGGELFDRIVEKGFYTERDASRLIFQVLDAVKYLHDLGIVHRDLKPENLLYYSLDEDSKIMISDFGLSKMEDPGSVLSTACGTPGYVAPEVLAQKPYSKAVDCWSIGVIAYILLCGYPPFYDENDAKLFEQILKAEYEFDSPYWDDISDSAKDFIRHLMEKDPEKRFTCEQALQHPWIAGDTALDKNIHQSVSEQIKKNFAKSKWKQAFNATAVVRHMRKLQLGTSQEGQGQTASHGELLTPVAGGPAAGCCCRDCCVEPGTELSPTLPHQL
Chain of Tyrosine-protein kinase Lyn (P07948 whole entry): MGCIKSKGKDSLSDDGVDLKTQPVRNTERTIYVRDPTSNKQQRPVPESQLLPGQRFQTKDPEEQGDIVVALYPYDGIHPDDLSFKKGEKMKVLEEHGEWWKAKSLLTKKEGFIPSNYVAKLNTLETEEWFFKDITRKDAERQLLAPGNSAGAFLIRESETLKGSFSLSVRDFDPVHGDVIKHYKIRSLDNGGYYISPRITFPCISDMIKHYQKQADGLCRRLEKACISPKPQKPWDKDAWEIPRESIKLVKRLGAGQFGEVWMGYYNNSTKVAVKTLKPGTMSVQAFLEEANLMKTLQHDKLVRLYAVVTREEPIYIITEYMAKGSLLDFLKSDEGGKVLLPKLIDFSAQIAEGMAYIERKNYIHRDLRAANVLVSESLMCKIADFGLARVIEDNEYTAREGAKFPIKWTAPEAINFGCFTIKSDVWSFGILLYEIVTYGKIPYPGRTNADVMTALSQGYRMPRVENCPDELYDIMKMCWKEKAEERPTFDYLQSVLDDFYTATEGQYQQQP
Chain of Macrophage colony-stimulating factor 1 receptor (P07333 whole entry): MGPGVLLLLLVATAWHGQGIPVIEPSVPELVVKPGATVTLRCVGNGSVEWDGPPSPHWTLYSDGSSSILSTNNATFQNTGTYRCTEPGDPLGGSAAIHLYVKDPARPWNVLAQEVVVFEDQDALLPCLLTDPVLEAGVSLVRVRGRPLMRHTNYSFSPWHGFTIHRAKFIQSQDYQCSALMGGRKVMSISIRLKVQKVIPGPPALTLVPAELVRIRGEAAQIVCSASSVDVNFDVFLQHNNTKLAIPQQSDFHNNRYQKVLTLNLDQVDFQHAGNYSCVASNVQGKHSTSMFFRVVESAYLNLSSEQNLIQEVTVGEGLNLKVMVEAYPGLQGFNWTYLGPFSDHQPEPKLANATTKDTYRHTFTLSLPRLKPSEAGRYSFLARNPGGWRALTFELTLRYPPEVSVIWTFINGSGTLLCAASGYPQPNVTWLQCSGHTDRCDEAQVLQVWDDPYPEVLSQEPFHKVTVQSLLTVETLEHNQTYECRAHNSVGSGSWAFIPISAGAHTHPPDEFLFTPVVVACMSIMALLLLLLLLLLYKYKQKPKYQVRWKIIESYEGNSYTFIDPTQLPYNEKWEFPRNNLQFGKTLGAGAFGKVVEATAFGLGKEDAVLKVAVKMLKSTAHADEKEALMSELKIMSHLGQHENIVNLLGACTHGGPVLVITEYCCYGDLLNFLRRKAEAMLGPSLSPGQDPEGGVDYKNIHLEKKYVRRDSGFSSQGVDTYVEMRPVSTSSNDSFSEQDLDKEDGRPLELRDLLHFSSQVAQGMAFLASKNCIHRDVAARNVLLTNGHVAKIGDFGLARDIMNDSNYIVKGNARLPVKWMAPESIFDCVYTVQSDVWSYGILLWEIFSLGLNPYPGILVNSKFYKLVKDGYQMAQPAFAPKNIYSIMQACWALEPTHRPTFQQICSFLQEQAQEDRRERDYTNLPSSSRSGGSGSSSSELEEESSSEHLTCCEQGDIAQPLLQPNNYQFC
Chain of Rho-associated protein kinase 1 (Q13464 whole entry, the tested form may be a part): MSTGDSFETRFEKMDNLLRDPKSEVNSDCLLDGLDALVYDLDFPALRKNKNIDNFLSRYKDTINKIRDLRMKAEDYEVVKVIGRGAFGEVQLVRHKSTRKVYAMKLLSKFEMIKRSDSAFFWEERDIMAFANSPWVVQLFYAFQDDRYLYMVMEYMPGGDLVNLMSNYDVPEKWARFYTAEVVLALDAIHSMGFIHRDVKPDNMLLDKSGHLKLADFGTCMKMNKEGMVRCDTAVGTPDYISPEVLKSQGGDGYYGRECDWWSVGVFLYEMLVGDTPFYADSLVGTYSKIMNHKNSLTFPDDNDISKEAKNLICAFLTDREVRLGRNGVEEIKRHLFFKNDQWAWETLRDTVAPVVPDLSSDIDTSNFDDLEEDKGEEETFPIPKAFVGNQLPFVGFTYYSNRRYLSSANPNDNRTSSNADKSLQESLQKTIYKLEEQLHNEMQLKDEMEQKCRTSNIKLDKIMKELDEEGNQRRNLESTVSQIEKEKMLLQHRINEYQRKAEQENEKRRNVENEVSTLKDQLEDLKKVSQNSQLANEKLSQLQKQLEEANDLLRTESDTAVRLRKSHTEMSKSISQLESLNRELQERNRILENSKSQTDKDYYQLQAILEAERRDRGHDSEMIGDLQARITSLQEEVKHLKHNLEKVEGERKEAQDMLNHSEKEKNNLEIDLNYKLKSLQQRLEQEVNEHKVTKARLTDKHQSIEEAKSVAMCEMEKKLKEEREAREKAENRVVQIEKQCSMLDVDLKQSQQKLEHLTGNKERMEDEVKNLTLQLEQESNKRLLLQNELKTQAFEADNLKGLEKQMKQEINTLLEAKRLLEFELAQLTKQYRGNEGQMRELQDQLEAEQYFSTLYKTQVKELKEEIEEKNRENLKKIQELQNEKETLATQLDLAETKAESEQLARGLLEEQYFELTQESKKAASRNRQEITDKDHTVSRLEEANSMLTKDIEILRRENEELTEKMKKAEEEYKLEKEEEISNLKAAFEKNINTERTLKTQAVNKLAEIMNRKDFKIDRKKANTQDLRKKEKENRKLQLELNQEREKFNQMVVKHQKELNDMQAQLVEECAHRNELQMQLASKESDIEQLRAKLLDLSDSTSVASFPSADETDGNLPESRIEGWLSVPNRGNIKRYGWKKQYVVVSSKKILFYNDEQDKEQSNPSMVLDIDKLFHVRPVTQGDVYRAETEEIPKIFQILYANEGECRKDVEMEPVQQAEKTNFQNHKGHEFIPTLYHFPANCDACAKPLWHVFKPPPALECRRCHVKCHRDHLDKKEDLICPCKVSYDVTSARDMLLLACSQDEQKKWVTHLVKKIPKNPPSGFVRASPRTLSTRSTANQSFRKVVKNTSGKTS
Chain of Latent membrane protein 1 (P03230 whole entry, the tested form may be a part): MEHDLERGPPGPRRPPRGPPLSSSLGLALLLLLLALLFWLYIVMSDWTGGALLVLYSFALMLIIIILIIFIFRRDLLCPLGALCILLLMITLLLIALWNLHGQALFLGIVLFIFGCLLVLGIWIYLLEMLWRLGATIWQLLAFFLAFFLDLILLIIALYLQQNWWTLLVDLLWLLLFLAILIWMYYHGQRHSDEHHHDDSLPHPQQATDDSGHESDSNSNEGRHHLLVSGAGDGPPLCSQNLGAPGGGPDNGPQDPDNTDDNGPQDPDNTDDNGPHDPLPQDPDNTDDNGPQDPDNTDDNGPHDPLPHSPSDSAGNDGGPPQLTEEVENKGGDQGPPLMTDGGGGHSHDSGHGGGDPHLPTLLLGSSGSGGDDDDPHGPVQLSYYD

Cc1ccc(F)c(NC(=O)Nc2ccc(-c3cccc4[nH]nc(N)c34)c(F)c2)c1
Ki [1]: 0.001 µM (active)
Ki [2]: 0.251 µM (active)
Ki [3]: > 0.631 µM (inactive)
Ki [4]: 0.316 µM (active)
Ki [5]: 0.00316 µM (active)
Ki [6]: 0.158 µM (active)
Ki [7]: 0.501 µM (active)
Ki [8]: 0.00316 µM (active)
Ki [9]: 0.0126 µM (active)
Ki [10]: 0.00398 µM (active)
Ki [11]: 0.002 µM (active)
Ki [12]: 0.501 µM (active)

CCOc1ccc(-c2cc(C)[n+](CCc3ccc(OC)c(OC)c3)c(-c3ccc(OCC)cc3)c2)cc1.[O-][Cl+3]([O-])([O-])[O-]
CC50 [13]: > 40 µM (active)
CC50 [14]: 1.3 µM (active)
CC50 [15]: 19.7 µM (active)
CC50 [16]: 11.9 µM (active)
CC50 [17]: 18.2 µM (active)
CC50 [18]: 1.7 µM (active)
CC50 [19]: 13.1 µM (active)
CC50 [20]: 21 µM (active)
CC50 [21]: 9.14 µM (active)
CC50 [22]: 2.28 µM (active)

Cn1c(N)nc2sc(C(N)=O)cc21
Ki [23]: 79.4 µM (active)
Ki [24]: 79.4 µM (active)
Ki [25]: 12.6 µM (active)
Ki [26]: 10 µM (active)
Ki [27]: 25.1 µM (active)
Ki [28]: 39.8 µM (active)
Ki [29]: 79.4 µM (active)

CC(C)c1ccc2c(c1)c(SC(C)(C)C)c(CC(C)(C)CNCCCO)n2Cc1ccc(Cl)cc1
Ki [30]: 7.94 µM (active)
Ki [31]: 5.01 µM (active)
Ki [32]: 3.98 µM (active)
Ki [33]: 7.94 µM (active)
Ki [34]: 2 µM (active)
Ki [35]: 2.51 µM (active)
Ki [36]: 6.31 µM (active)

O=c1c(Oc2ccc(Cl)c(Cl)c2)c(Cl)cnn1Cc1cccc2ccccc12
IC50 [37]: > 20 µM (inactive)
IC50 [38]: > 20 µM (inactive)

CNc1oc(-c2cccc3ccccc23)nc1C#N
IC50 [39]: > 50 µM (inactive)
IC50 [40]: 0.887 µM (active)
IC50 [41]: > 66.2 µM (inactive)
IC50 [42]: > 88.8 µM (inactive)
IC50 [43]: > 49.7 µM (inactive)
IC50 [44]: 3.48 µM (active)

CC1=C(C(=O)OCc2ccc3c(c2)OCO3)C(c2ccc(F)cc2)NC(=O)N1 (configuration not stated)
AC50 [45]: > 52 µM (inactive)
AC50 [46]: 1.47 µM (active)
AC50 [47]: 0.284 µM (active)
AC50 [48]: 3.36 µM (active)
AC50 [49]: 9.67 µM (active)
AC50 [50]: 0.576 µM (active)
AC50 [51]: 1.85 µM (active)
EC50 [52]: < 0.16 µM (active)
